Experiments:
[1] = system: cellular histone deacetylase enzymatic activity in Jurkat E6-1 cells; assay: Inhibition of cellular HDAC activity, Boc-Lys(Tfa)-AMC substrate, in Jurkat E6-1 cells; assay type: cell-based; settings: Homo sapiens, Class IIa selective substrate Boc-Lys(Tfa)-AMC
Source text: The potency of Class IIa Histone Deacetylase (HDAC) inhibitors is quantified by measuring the cellular histone deacetylase enzymatic activity using the Class IIa selective substrate, Boc-Lys(Tfa)-AMC. After penetration in Jurkat E6-1 cells, the substrate is deacetylated to Boc-Lys-AMC. After cell lysis and cleavage by trypsin, the fluorophore AMC is released from the deacetylated substrate only. The fluoresence of the sample is directly related to the histone deacetylase activity in the sample.
Jurkat E6.1 Cell Culture and Plating.
Jurkat E6.1 cells are cultured according to standard cell culture protocols in Jurkat E6.1 Growth Media (RPMI without phenol red, 10% FBS, 10 mM HEPES, and 1 mM Sodium Pyruvate). Jurkat E6.1 cells are counted using a Coulter Counter and resuspended in Jurkat E6.1 growth media at a concentration of 75,000 cells/35 μl. 35 μl or 75,000 cells is seeded into Greiner microtitre assay plates. The plates are then incubated at 37° C. and 5% CO2 while other assay components are being prepared.
Serially Dilute HDAC Inhibitor Compounds.
Serial dilutions of the HDAC inhibitors and control reference compound (1-(5-(3-((4-(1,3,4-oxadiazol-2-yl)phenoxy)methyl)-1,2,4-oxadiazol-5-yl)thiophen-2-yl)-2,2,2-trifluoroethanone) are made by first resuspending the lyophilized compound to a final concentration of 10 mM in 100% DMSO. Stocks of 70 μl aliquots of the 10 mM compound in DMSO are prepared and stored at −20° C. From one stock aliquot of each compound to be tested and the reference compound, a 16-point serial dilution is prepared according to Table 7 using a 125 μl 16-channel Matrix multi-channel pipette.
2 μl (200×) of each diluted solution and each control (full activity: 100% DMSO alone or full inhibition 1 mM) is stamped into V-bottom polypropylene 384-well compound plates using either the Bravo, Janus, or […] 16-channel Matrix multi-channel pipette. Each well with the 200× compound solution is diluted 1:20 by the addition of 38 μl Jurkat assay buffer+DMSO (9.5% DMSO, RPMI without phenol red, 0.09% FBS, 9 mM Hepes, and 0.9 mM Sodium Pyruvate equilibrated to room temperature)
Prepare 5× (500 μM) Boc-Lys(Tfa)-AMC Substrate.
5× (500 μM) substrate is prepared just prior to the addition to the assay. The 5× substrate is prepared by diluting a 100 mM Boc-Lys(Tfa)-AMC in DMSO solution 1:200 by adding it drop-wise to Jurkat assay medium (RPMI without phenol red, 0.1% FBS, 10 mM Hepes, and 1 mM Sodium Pyruvate equilibrated to 37° C.) while vortexing at slow speed to prevent precipitation.
10 ml of 3× lysis buffer is prepared with 8.8 ml of 3× stock lysis buffer (50 mM Tris-HCl, pH 8.0, 137 mM NaCl, 2.7 mM KCl, 1 mM MgCl2, 1% Nonidet P40 Substitute equilibrated to room temperature) and 1.2 ml of 3 mg/ml Trypsin equilibrated to room temperature.
5 μl of each solution of 1:20 diluted compound from above is transferred to the Greiner microtitre assay plates with 75,000 cells/well using the Bravo. Cells are then incubated for 2 hours at 37° C. and 5% CO2. The assay is then started by adding 10 μl of 5× (500 μM) substrate to the assay plate using either the Bravo or 16-channel Matrix multi-channel pipette. The cells are then incubated for 3 hours at 37° C. and 5% CO2. Next, 25 μl of 3× lysis buffer is added to each well using either the 125 μl 16 channel pipette or the Bravo. The assay plate is then incubated overnight (15-16 hours) at 37° C. and 5% CO2. The following day, the plates are shaken on an orbital shaker for 1 minute at 900 rpm. Finally the top read fluorescence (Excitation: 355 nm, Emission: 460 nm) is measured using PerkinElmer EnVision.

[2] = biological target: human catalytic domain HDAC4 protein (Homo sapiens, UniProt P56524, A743G/DEL730-739/DEL742-742); assay: Inhibition of HDAC4 catalytic domain enzymatic activity, Boc-Lys(Tfa)-AMC substrate, fluorescence; settings: Class IIa selective substrate Boc-Lys(Tfa)-AMC, read-out: Biochemical HDAC-4 IC50;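 further: trypsin releases AMC from deacetylated substrate, fluorescence tracks enzyme activity, 15 min reaction at 37 °C, 100% activity defined by DMSO-only control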

SMILES: O=C(NO)[C@@H]1[C@H](c2ccccc2)[C@H]1c1cccc(N2CCC(N3CCCC3)CC2)c1 (racemic) [Compound 56g, (1R*,2R*,3R*)—N-Hydroxy-2-phenyl-3-(3-(4-(pyrrolidin-1-yl)piperidin-1-yl)phenyl)cyclopropanecarboxamide]
- IC50 [1]: 2180 nM
- IC50 [2]: 390 nM

SMILES: O=C(NO)[C@@H]1[C@H](c2ccccc2)[C@H]1c1ccc(Br)cc1 (racemic) [Compound 16c, (1R*,2R*,3R*)-2-(4-Bromophenyl)-N-hydroxy-3-phenylcyclopropanecarboxamide]
- IC50 [1]: 2870 nM
- IC50 [2]: 370 nM

SMILES: CN1CCOc2cc(-c3ccc([C@H]4[C@H](C(=O)NO)[C@@H]4c4ccccc4)cc3)ccc21 [Compound 54c, (1R,2R,3R)—N-hydroxy-2-(4-(4-methyl-3,4-dihydro-2H-benzo[b][1,4]oxazin-7-yl)phenyl)-3-phenylcyclopropanecarboxamide]
- IC50 [1]: 1430 nM
- IC50 [2]: 260 nM

SMILES: O=C(NO)[C@H]1[C@H](c2ccccc2)[C@H]1c1ccccc1F (racemic) [Compound 13, (1S*,2R*,3R)-2-(2-Fluorophenyl)-N-hydroxy-3-phenylcyclopropanecarboxamide]
- IC50 [1]: 7670 nM
- IC50 [2]: 940 nM

SMILES: O=C(NO)[C@@H]1[C@H](c2ccccc2)[C@H]1c1ccc(-c2ccc(-n3c4ccccc4c4ccccc43)cc2)cc1 (racemic) [Compound 54b, (1R*,2R*,3R*)-2-(4′-(9H-carbazol-9-yl)-[1,1′-biphenyl]-4-yl)-N-hydroxy-3-phenylcyclopropanecarboxamide]
- IC50 [1]: 50000 nM
- IC50 [2]: 5660 nM

SMILES: Cc1cnc(-c2ccc([C@H]3[C@H](C(=O)NO)[C@@H]3c3ccccc3)cc2)s1 [Compound 102, (1R,2R,3R)—N-hydroxy-2-(4-(5-methylthiazol-2-yl)phenyl)-3-phenylcyclopropanecarboxamide]
- IC50 [1]: 440 nM
- IC50 [2]: 40 nM

SMILES: O=C(NO)[C@@H]1[C@H](c2ccccc2)[C@H]1c1ccc(C2=CCN(Cc3ccccc3)CC2)cc1 [Compound 71, (1R,2R,3R)-2-(4-(1-Benzyl-1,2,3,6-tetrahydropyridin-4-yl)phenyl)-N-hydroxy-3-phenylcyclopropanecarboxamide]
- IC50 [1]: 750 nM
- IC50 [2]: 350 nM

SMILES: O=C(NO)[C@@H]1[C@H](c2ccccc2)[C@H]1c1ccc(-c2ncc(Cl)cn2)cc1 [Compound 50j, (1R,2R,3R)-2-(4-(5-Chloropyrimidin-2-yl)phenyl)-N-hydroxy-3-phenylcyclopropanecarboxamide]
- IC50 [1]: 420 nM

SMILES: CN1CCN(c2ccc([C@H]3[C@H](C(=O)NO)[C@@H]3c3ccccc3)cc2)CC1 (racemic) [Compound 56i, (1R*,2R*,3R*)—N-Hydroxy-2-(4-(4-methylpiperazin-1-yl)phenyl)-3-phenylcyclopropanecarboxamide]
- IC50 [1]: 1310 nM
- IC50 [2]: 140 nM

SMILES: O=C(NO)[C@H]1[C@H](c2ccnc(C3CC3)c2)[C@H]1c1ccccc1F [Compound 28c, (1S,2R,3R)-2-(2-Cyclopropylpyridin-4-yl)-3-(2-fluorophenyl)-N-hydroxycyclopropanecarboxamide]
- IC50 [1]: 530 nM
- IC50 [2]: 40 nM

SMILES: Cc1cnc(-c2cccc([C@H]3[C@H](C(=O)NO)[C@@H]3c3ccccc3)c2)nc1 [Compound 77, (1R,2R,3R)—N-Hydroxy-2-(3-(5-methylpyrimidin-2-yl)phenyl)-3-phenylcyclopropanecarboxamide]
- IC50 [1]: 780 nM
- IC50 [2]: 160 nM

SMILES: Cc1ncc(-c2ccc([C@H]3[C@H](C(=O)NO)[C@@H]3c3ccccc3F)cc2)o1 [Compound 75b, (1S,2R,3R)-2-(2-Fluorophenyl)-N-hydroxy-3-(4-(2-methyloxazol-5-yl)phenyl)cyclopropanecarboxamide]
- IC50 [1]: 470 nM
- IC50 [2]: 50 nM

SMILES: O=C(NO)[C@@H]1[C@H](c2ccccc2)[C@H]1c1cccc(Br)c1 (racemic) [Compound 16b, (1R*,2R*,3R*)-2-(3-Bromophenyl)-N-hydroxy-3-phenylcyclopropanecarboxamide]
- IC50 [1]: 1410 nM
- IC50 [2]: 70 nM

SMILES: O=C(NO)[C@@H]1[C@H](c2ccccc2)[C@H]1c1cnc2ccccn12 [Compound 115, (1R,2R,3R)—N-hydroxy-2-(imidazo[1,2-a]pyridin-3-yl)-3-phenylcyclopropanecarboxamide]
- IC50 [1]: 6660 nM
- IC50 [2]: 550 nM

SMILES: O=C(NO)[C@@H]1[C@H](c2ccccc2)[C@H]1c1ccccc1Br (racemic) [Compound 16a, (1R*,2R*,3R*)-2-(2-Bromophenyl)-N-hydroxy-3-phenylcyclopropanecarboxamide]
- IC50 [1]: 6530 nM
- IC50 [2]: 620 nM

SMILES: O=C(NO)[C@@H]1[C@H](c2cccc(F)c2)[C@H]1c1ccnc(C2CC2)c1 [Compound 100b, (1S,2R,3R)-2-(2-Cyclopropylpyridin-4-yl)-3-(3-fluorophenyl)-N-hydroxycyclopropanecarboxamide]
- IC50 [1]: 420 nM
- IC50 [2]: 20 nM

SMILES: Cc1cnc(-c2ccc([C@H]3[C@H](C(=O)NO)[C@@H]3c3ccccc3)cc2)nc1 (racemic) [Compound 50k, (1R*,2R*,3R*)—N-Hydroxy-2-(4-(5-methylpyrimidin-2-yl)phenyl)-3-phenylcyclopropanecarboxamide]
- IC50 [1]: 480 nM

SMILES: O=C(NO)[C@@H]1[C@H](c2ccccc2)[C@H]1c1ccc(-c2ncc(C3CC3)cn2)cc1 (racemic) [Compound 50c, (1R*,2R*,3R*)-2-(4-(5-Cyclopropylpyrimidin-2-yl)phenyl)-N-hydroxy-3-phenylcyclopropanecarboxamide]
- IC50 [1]: 810 nM
- IC50 [2]: 220 nM

SMILES: Cc1ccc([C@H]2[C@H](C(=O)NO)[C@@H]2c2ccccc2)cc1 (racemic) [Compound 18c, (1R*,2R*,3R*)—N-Hydroxy-2-phenyl-3-p-tolylcyclopropanecarboxamide]
- IC50 [1]: 2250 nM
- IC50 [2]: 150 nM

SMILES: O=C(NO)[C@@H]1[C@H](c2ccccc2)[C@H]1c1ccc(-c2cccc(OCc3ccccc3)c2)cc1 [Compound 54a, (1R,2R,3R)-2-(3′-(Benzyloxy)-[1,1′-biphenyl]-4-yl)-N-hydroxy-3-phenylcyclopropanecarboxamide]
- IC50 [1]: 8850 nM
- IC50 [2]: 990 nM

SMILES: C[C@@]1(C(=O)NO)[C@H](c2ccccc2)[C@H]1c1ccc(-c2ncc(F)cn2)cc1 (racemic) [Compound 63, (1R*,2S*,3S*)-2-(4-(5-Fluoropyrimidin-2-yl)phenyl)-N-hydroxy-1-methyl-3-phenylcyclopropanecarboxamide]
- IC50 [1]: 1550 nM
- IC50 [2]: 270 nM

SMILES: O=C(NO)[C@H]1[C@H](c2ccc(NCC(F)(F)F)nc2)[C@H]1c1ccccc1F [Compound 106, (1S,2R,3R)-2-(2-Fluorophenyl)-N-hydroxy-3-(6-((2,2,2-trifluoroethyl)amino)pyridin-3-yl)cyclopropanecarboxamide]
- IC50 [1]: 1410 nM
- IC50 [2]: 170 nM

SMILES: O=C(NO)[C@@H]1[C@H](c2ccccc2)[C@H]1c1ccc(-c2ccnnc2)cc1 (racemic) [Compound 50g, (1R*,2R*,3R*)—N-Hydroxy-2-phenyl-3-(4-(pyridazin-4-yl)phenyl)cyclopropanecarboxamide]
- IC50 [1]: 660 nM
- IC50 [2]: 110 nM

SMILES: O=C(NO)[C@@H]1[C@H](c2ccccc2)[C@H]1c1ccc(-c2nccc(C(F)(F)F)n2)cc1 (racemic) [Compound 50d, (1R*,2R*,3R*)-2-(4-(4-Trifluoromethylpyrimidin-2-yl)phenyl)-N-hydroxy-3-phenylcyclopropanecarboxamide]
- IC50 [1]: 880 nM

Reference: patent US9765054B2, “Histone deacetylase inhibitors and compositions and methods of use thereof” (CHDI Foundation, Inc., priority 2011, dated 2017)
